Reference: PubChem BioAssay AID248 (DTP/NCI, 2004)
“And” between values parts separate entries of the source, which are not always exact repeats. Identical values can stand only once. Inconclusive results and toxic doses are left out. Rule as the data show it: active = T/C of 150% or more; inactive = T/C below 125%.

System: L1210 leukemia ip in BDF1 mice, survival T/C
Assay: NCI In Vivo Anticancer Drug Screen. Data for tumor model L1210 Leukemia (intraperitoneal) in B6D2F1 (BDF1) mice
Details: endpoint: mean survival time, higher = longer survival
In short: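 Transplantable tumor model; survival measured in treated vs vehicle control mice. Value = treated/control.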

[1] = dose: 100.0 mg/kg/injection, schedule: Q04DX003 (ip), vehicle: saline
[2] = dose: 200.0 mg/kg/injection, schedule: Q04DX003 (ip), vehicle: saline
[3] = dose: 400.0 mg/kg/injection, schedule: Q04DX003 (ip), vehicle: saline
[4] = dose: 25.0 mg/kg/injection, schedule: Q04DX003 (ip), vehicle: saline
[5] = dose: 100.0 mg/kg/injection, schedule: Q01DX001 (ip), vehicle: Klucel (hydroxypropylcellulose) (HPC)
[6] = dose: 200.0 mg/kg/injection, schedule: Q01DX001 (ip), vehicle: Klucel (hydroxypropylcellulose) (HPC)
[7] = dose: 400.0 mg/kg/injection, schedule: Q01DX001 (ip), vehicle: Klucel (hydroxypropylcellulose) (HPC)
[8] = dose: 25.0 mg/kg/injection, schedule: Q01DX001 (ip), vehicle: saline
[9] = dose: 50.0 mg/kg/injection, schedule: Q01DX001 (ip), vehicle: saline
[10] = dose: 100.0 mg/kg/injection, schedule: Q01DX009 (ip), vehicle: Klucel (hydroxypropylcellulose) (HPC)
[11] = dose: 200.0 mg/kg/injection, schedule: Q01DX009 (ip), vehicle: Klucel (hydroxypropylcellulose) (HPC)
[12] = dose: 400.0 mg/kg/injection, schedule: Q01DX009 (ip), vehicle: Klucel (hydroxypropylcellulose) (HPC)

Measured: T/C

COc1cc2c(c(OC)c1OC)-c1ccc(OC)c(=O)cc1[C@@H](NC(=O)CCl)CC2
inactive: dose: 0.06 mg/kg/injection, schedule: Q01DX009 (ip), vehicle: Klucel (hydroxypropylcellulose) (HPC) 108 % of control | dose: 0.12 mg/kg/injection, schedule: Q01DX009 (ip), vehicle: Klucel (hydroxypropylcellulose) (HPC) 110 % of control | dose: 0.14 mg/kg/injection, schedule: Q01DX009 (ip), vehicle: saline 115 % of control | dose: 0.18 mg/kg/injection, schedule: Q04DX003 (ip), vehicle: Klucel (hydroxypropylcellulose) (HPC) 102 % of control | dose: 0.23 mg/kg/injection, schedule: Q01DX009 (ip), vehicle: saline 121 % of control | dose: 0.25 mg/kg/injection, schedule: Q01DX009 (ip), vehicle: Klucel (hydroxypropylcellulose) (HPC) 118 % of control and 124 % of control | dose: 0.37 mg/kg/injection, schedule: Q04DX003 (ip), vehicle: Klucel (hydroxypropylcellulose) (HPC) 119 % of control | dose: 0.75 mg/kg/injection, schedule: Q04DX003 (ip), vehicle: Klucel (hydroxypropylcellulose) (HPC) 120 % of control

Cc1nc(N)[nH]c(=O)c1CC(C)O (stereo unspecified)
inactive: [1] 92 % of control | [2] 100 % of control | [3] 92 % of control

CCOC(=O)CS(=O)(=O)CS(=O)(=O)CC(=O)OCC
inactive: dose: 100.0 mg/kg/injection, schedule: Q04DX002 (ip), vehicle: Klucel (hydroxypropylcellulose) (HPC) 94 % of control | dose: 200.0 mg/kg/injection, schedule: Q04DX002 (ip), vehicle: Klucel (hydroxypropylcellulose) (HPC) 100 % of control | dose: 400.0 mg/kg/injection, schedule: Q04DX002 (ip), vehicle: Klucel (hydroxypropylcellulose) (HPC) 100 % of control

Cc1ccnc(NC2=CC(=O)C(=O)c3ccccc32)c1
inactive: dose: 100.0 mg/kg/injection, schedule: Q01DX001 (ip), vehicle: other 93 % of control | dose: 200.0 mg/kg/injection, schedule: Q01DX001 (ip), vehicle: other 95 % of control | dose: 400.0 mg/kg/injection, schedule: Q01DX001 (ip), vehicle: other 103 % of control

C[P+]1(CCc2ccc(Cl)cc2)CC=CC1
inactive: [4] 93 % of control | dose: 50.0 mg/kg/injection, schedule: Q04DX003 (ip), vehicle: saline 103 % of control | [1] 96 % of control and 88 % of control

O=S1(=O)Oc2c(Cl)cc(Cl)cc2S(=O)(=O)Oc2c(Cl)cc(Cl)cc21
inactive: [5] 105 % of control | [6] 105 % of control | [7] 98 % of control

COC1=C(C(=O)O)P(C)(=O)CC1 (stereo unspecified)
inactive: dose: 50.0 mg/kg/injection, schedule: Q04DX002 (ip), vehicle: saline with Tween-80 95 % of control | dose: 100.0 mg/kg/injection, schedule: Q04DX002 (ip), vehicle: saline with Tween-80 98 % of control | dose: 200.0 mg/kg/injection, schedule: Q04DX002 (ip), vehicle: saline with Tween-80 95 % of control

CS/C(N)=N\N=C/c1ccccc1
inactive: dose: 6.25 mg/kg/injection, schedule: Q01DX009 (ip), vehicle: saline 102 % of control | dose: 12.5 mg/kg/injection, schedule: Q01DX009 (ip), vehicle: saline 102 % of control | [8] 117 % of control | dose: 25.0 mg/kg/injection, schedule: Q01DX009 (ip), vehicle: saline 102 % of control | [4] 97 % of control | [9] 97 % of control | dose: 100.0 mg/kg/injection, schedule: Q01DX001 (ip), vehicle: saline 102 % of control and 105 % of control

[CH3][Sn]([CH3])([Br])[CH2]CCBr
inactive: dose: 0.78 mg/kg/injection, schedule: Q01DX009 (ip), vehicle: saline 100 % of control | dose: 1.56 mg/kg/injection, schedule: Q01DX009 (ip), vehicle: saline 100 % of control

Oc1ccccc1C=NCCCN1CCOCC1.Oc1ccccc1C=NCCCN1CCOCC1.[Co]
inactive: dose: 12.5 mg/kg/injection, schedule: Q01DX001 (ip), vehicle: saline 98 % of control | [8] 100 % of control | [9] 98 % of control

Cc1cccc2c1OC(=O)CCC21CCCCC1=O (stereo unspecified)
inactive: dose: 100.0 mg/kg/injection, schedule: Q01DX009 (ip), vehicle: saline with Tween-80 101 % of control | dose: 200.0 mg/kg/injection, schedule: Q01DX009 (ip), vehicle: saline with Tween-80 98 % of control | dose: 400.0 mg/kg/injection, schedule: Q01DX009 (ip), vehicle: saline with Tween-80 97 % of control

COc1ccc([N+](=O)[O-])cc1NC(=O)Nc1ccccc1C(F)(F)F
inactive: [10] 88 % of control and 92 % of control | [11] 92 % of control | [12] 92 % of control

CCCCC1=C(OCC)C(CCCC)C1=O (stereo unspecified)
inactive: dose: 10.0 mg/kg/injection, schedule: Q01DX009 (ip), vehicle: Klucel (hydroxypropylcellulose) (HPC) 94 % of control | dose: 20.0 mg/kg/injection, schedule: Q01DX009 (ip), vehicle: Klucel (hydroxypropylcellulose) (HPC) 92 % of control | dose: 40.0 mg/kg/injection, schedule: Q01DX009 (ip), vehicle: Klucel (hydroxypropylcellulose) (HPC) 94 % of control | [10] 101 % of control | dose: 100.0 mg/kg/injection, schedule: Q04DX003 (ip), vehicle: Klucel (hydroxypropylcellulose) (HPC) 96 % of control | dose: 200.0 mg/kg/injection, schedule: Q04DX003 (ip), vehicle: Klucel (hydroxypropylcellulose) (HPC) 100 % of control

O=C1c2ccccc2C(=O)N1OCc1cc(Cl)sc1Cl
inactive: dose: 100.0 mg/kg/injection, schedule: Q04DX003 (ip), vehicle: saline with Tween-80 97 % of control | dose: 200.0 mg/kg/injection, schedule: Q04DX003 (ip), vehicle: saline with Tween-80 96 % of control | dose: 400.0 mg/kg/injection, schedule: Q04DX003 (ip), vehicle: saline with Tween-80 104 % of control

N=C1SSC(=S)C1C(N)=O (stereo unspecified)
inactive: dose: 50.0 mg/kg/injection, schedule: Q01DX001 (ip), vehicle: carboxymethylcellulose (CMC) 94 % of control | dose: 100.0 mg/kg/injection, schedule: Q01DX001 (ip), vehicle: carboxymethylcellulose (CMC) 96 % of control | dose: 200.0 mg/kg/injection, schedule: Q01DX001 (ip), vehicle: carboxymethylcellulose (CMC) 100 % of control | dose: 400.0 mg/kg/injection, schedule: Q01DX001 (ip), vehicle: carboxymethylcellulose (CMC) 100 % of control

c1ccc(CNC(Cc2ccccc2)c2ccc(OCc3ccccc3)cc2)cc1 (stereo unspecified)
inactive: [10] 93 % of control | [11] 89 % of control | [12] 89 % of control

Nc1nc(=S)c2[nH]c(N=Nc3ccc(S(=O)(=O)Nc4nccs4)cc3)nc2[nH]1
inactive: dose: 6.25 mg/kg/injection, schedule: Q01DX009 (ip), vehicle: Klucel (hydroxypropylcellulose) (HPC) 92 % of control | dose: 12.5 mg/kg/injection, schedule: Q01DX009 (ip), vehicle: Klucel (hydroxypropylcellulose) (HPC) 92 % of control | dose: 25.0 mg/kg/injection, schedule: Q01DX009 (ip), vehicle: Klucel (hydroxypropylcellulose) (HPC) 100 % of control | dose: 35.0 mg/kg/injection, schedule: Q01DX001 (ip), vehicle: Klucel (hydroxypropylcellulose) (HPC) 119 % of control | [5] 123 % of control | [10] 88 % of control

CC(C)Cc1c(N)nc(=S)[nH]c1C(=O)O
inactive: [5] 100 % of control | [1] 100 % of control | [6] 100 % of control | [2] 94 % of control | [7] 109 % of control | [3] 94 % of control

O=c1cc(O)nc(C(F)(F)F)[nH]1
inactive: dose: 29.0 mg/kg/injection, schedule: Q01DX Z (ip), vehicle: methylcellulose (MC) 92 % of control | dose: 44.0 mg/kg/injection, schedule: Q01DX Z (ip), vehicle: methylcellulose (MC) 96 % of control | dose: 66.0 mg/kg/injection, schedule: Q01DX Z (ip), vehicle: methylcellulose (MC) 103 % of control | dose: 100.0 mg/kg/injection, schedule: Q01DX Z (ip), vehicle: methylcellulose (MC) 100 % of control
